Assay results taken from ChEMBL document CHEMBL1201862, “PubChem BioAssay data set” (2004).
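1) Cells in 96-well plates. 2) Compound, 48 h, 5 concentrations. 3) Linear interpolation between surrounding doses. 4) Unreached endpoint = highest concentration. GI50 marks 50% less growth.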 The source made the active and inactive calls. Rule as the data show it: active = GI50 up to about 1.1 µM and inactive = higher.

Key:
Experiment in all cases: NCI tumour cell line growth inhibition, 48 h
SF-268 = system: SF-268
Hs-578T = system: Hs-578T
NCI-H522 = system: NCI-H522
NCI/ADR-RES = system: NCI/ADR-RES
A498 = system: A498
COLO 205 = system: COLO 205
PC-3 = system: PC-3
MOLT-4 = system: MOLT-4
MDA-MB-231 = system: MDA-MB-231
OVCAR-5 = system: OVCAR-5
DU-145 = system: DU-145
SN12C = system: SN12C
M14 = system: M14
SK-MEL-2 = system: SK-MEL-2
MCF7 = system: MCF7
NCI-H226 = system: NCI-H226
UACC-62 = system: UACC-62
T47D = system: T47D
CCRF-CEM = system: CCRF-CEM
BT-549 = system: BT-549
U-251 = system: U-251
SK-MEL-5 = system: SK-MEL-5
MDA-N = system: MDA-N
NCI-H23 = system: NCI-H23
OVCAR-8 = system: OVCAR-8
OVCAR-3 = system: OVCAR-3
SNB-19 = system: SNB-19
MDA-MB-435 = system: MDA-MB-435
HCT-116 = system: HCT-116
SR = system: SR
CAKI-1 = system: CAKI-1
ACHN = system: ACHN
HOP-62 = system: HOP-62
SF-539 = system: SF-539
EKVX = system: EKVX
TK-10 = system: TK-10
SW-620 = system: SW-620
HOP-92 = system: HOP-92
A549 = system: A549
HT-29 = system: HT-29
UO-31 = system: UO-31
UACC-257 = system: UACC-257
RXF 393 = system: RXF 393
786-0 = system: 786-0
KM12 = system: KM12
SK-OV-3 = system: SK-OV-3
LOX IMVI = system: LOX IMVI
RPMI-8226 = system: RPMI-8226
K562 = system: K562
NCI-H460 = system: NCI-H460
OVCAR-4 = system: OVCAR-4
IGROV-1 = system: IGROV-1
HL-60 = system: HL-60
HCT-15 = system: HCT-15
Malme-3M = system: Malme-3M
SF-295 = system: SF-295

With COc1ccc2c(=O)oc3c(OC)cc(CCN(C)C)c4c(=O)oc1c2c34 [TASPINE] the GI50 (SF-268) was 7.33 µM (inactive), the GI50 (Hs-578T) was 10.3 µM (inactive) and the GI50 (NCI-H522) was 6.76 µM (inactive). The GI50 (NCI/ADR-RES) was 7.46 µM (inactive), the GI50 (A498) was 10.3 µM (inactive) and the GI50 (COLO 205) was 9.16 µM (inactive). The GI50 (PC-3) was 10.5 µM (inactive), the GI50 (MOLT-4) was 6.79 µM (inactive) and the GI50 (MDA-MB-231) was 8.55 µM (inactive). The GI50 (OVCAR-5) was 11.7 µM (inactive), the GI50 (DU-145) was 8.51 µM (inactive) and the GI50 (SN12C) was 7.78 µM (inactive). The GI50 (M14) was 9.31 µM (inactive), the GI50 (SK-MEL-2) was 12.1 µM (inactive) and the GI50 (MCF7) was 5.86 µM (inactive). For the same molecule, the GI50 (NCI-H226) was 24.2 µM (inactive), the GI50 (UACC-62) was 8.97 µM (inactive) and the GI50 (T47D) was 9.35 µM (inactive). For the same molecule, the GI50 (CCRF-CEM) was 0.948 µM (active), the GI50 (BT-549) was 7.74 µM (inactive) and the GI50 (U-251) was 9.68 µM (inactive). The GI50 (SK-MEL-5) was 7.29 µM (inactive), the GI50 (MDA-N) was 7.82 µM (inactive) and the GI50 (NCI-H23) was 9.27 µM (inactive). The GI50 (OVCAR-8) was 6.93 µM (inactive), the GI50 (OVCAR-3) was 9.86 µM (inactive) and the GI50 (SNB-19) was 8.93 µM (inactive). For the same molecule, the GI50 (MDA-MB-435) was 8.32 µM (inactive).

In the case of CC(=O)N1N=C(c2cc(C)ccc2O)CC1c1cccc(Cl)c1 (stereo not drawn), the GI50 (SF-268) is reported as 8.55 µM (inactive), the GI50 (Hs-578T) is reported as 12.9 µM (inactive) and the GI50 (NCI-H522) is reported as 3.07 µM (inactive). For the same molecule, the GI50 (NCI/ADR-RES) was 6.03 µM (inactive), the GI50 (HCT-116) was 13.8 µM (inactive) and the GI50 (SR) was 1.83 µM (inactive). The GI50 (COLO 205) was 6.93 µM (inactive), the GI50 (CAKI-1) was 27.3 µM (inactive) and the GI50 (PC-3) was 3.35 µM (inactive). The GI50 (MOLT-4) was 4.26 µM (inactive), the GI50 (ACHN) was 16.1 µM (inactive) and the GI50 (HOP-62) was 22.3 µM (inactive). For the same molecule, the GI50 (MDA-MB-231) was 17.5 µM (inactive), the GI50 (SF-539) was 19.2 µM (inactive) and the GI50 (OVCAR-5) was 30.1 µM (inactive). The GI50 (EKVX) was 24.1 µM (inactive), the GI50 (DU-145) was 51.9 µM (inactive) and the GI50 (TK-10) was 17.4 µM (inactive). The GI50 (SN12C) was 17.5 µM (inactive), the GI50 (SW-620) was 7.74 µM (inactive) and the GI50 (M14) was 15.1 µM (inactive). For the same molecule, the GI50 (SK-MEL-2) was 10.3 µM (inactive), the GI50 (MCF7) was 5.79 µM (inactive) and the GI50 (NCI-H226) was 16.1 µM (inactive). For the same molecule, the GI50 (HOP-92) was 3.17 µM (inactive), the GI50 (A549) was 11.8 µM (inactive) and the GI50 (HT-29) was 6.97 µM (inactive). The GI50 (UACC-62) was 7.6 µM (inactive), the GI50 (T47D) was 23.1 µM (inactive) and the GI50 (UO-31) was 17.4 µM (inactive). The GI50 (CCRF-CEM) was 13.4 µM (inactive), the GI50 (UACC-257) was 14.2 µM (inactive) and the GI50 (RXF 393) was 11.3 µM (inactive). The GI50 (BT-549) was 33.3 µM (inactive), the GI50 (786-0) was 21.7 µM (inactive) and the GI50 (U-251) was 13.8 µM (inactive). The GI50 (SK-MEL-5) was 11.7 µM (inactive), the GI50 (KM12) was 5.7 µM (inactive) and the GI50 (SK-OV-3) was 9.1 µM (inactive). For the same molecule, the GI50 (LOX IMVI) was 12.5 µM (inactive), the GI50 (MDA-N) was 2.12 µM (inactive) and the GI50 (NCI-H23) was 13.5 µM (inactive). The GI50 (RPMI-8226) was 6.24 µM (inactive), the GI50 (OVCAR-8) was 27.4 µM (inactive) and the GI50 (K562) was 4.05 µM (inactive). For the same molecule, the GI50 (OVCAR-3) was 32.1 µM (inactive), the GI50 (NCI-H460) was 8.85 µM (inactive) and the GI50 (OVCAR-4) was 13.7 µM (inactive). The GI50 (IGROV-1) was 2.6 µM (inactive), the GI50 (SNB-19) was 6.08 µM (inactive) and the GI50 (MDA-MB-435) was 1.6 µM (inactive). The GI50 (HL-60) was 8.53 µM (inactive), the GI50 (HCT-15) was 1.95 µM and the GI50 (Malme-3M) was 6.93 µM (inactive). The GI50 (SF-295) was 10.9 µM (inactive).
